{"source": "PubChem BioAssay AID330", "about": "(DTP/NCI, 2004)", "test_system": "P388 leukemia ip, CD2F1 mice, survival T/C", "assay": "NCI In Vivo Anticancer Drug Screen. Data for tumor model P388 Leukemia (intraperitoneal) in CD2F1 (CDF1) mice", "conditions": "endpoint: median survival time, higher = longer survival", "summary_of_the_method": "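Mice carrying the transplanted tumor received test compound or vehicle. Survival was recorded in each group, and the value is the treated-group measurement divided by that of the vehicle-treated control group.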", "key": {"[1]": {"conditions": "dose: 100.0 mg/kg/injection, schedule: Q04DX002 (ip), vehicle: saline with Tween-80"}, "[2]": {"conditions": "dose: 200.0 mg/kg/injection, schedule: Q04DX002 (ip), vehicle: saline with Tween-80"}, "[3]": {"conditions": "dose: 400.0 mg/kg/injection, schedule: Q04DX002 (ip), vehicle: saline with Tween-80"}, "[4]": {"conditions": "dose: 50.0 mg/kg/injection, schedule: Q01DX005 (ip), vehicle: Klucel (hydroxypropylcellulose) (HPC)"}, "[5]": {"conditions": "dose: 100.0 mg/kg/injection, schedule: Q01DX005 (ip), vehicle: Klucel (hydroxypropylcellulose) (HPC)"}, "[6]": {"conditions": "dose: 200.0 mg/kg/injection, schedule: Q01DX005 (ip), vehicle: Klucel (hydroxypropylcellulose) (HPC)"}, "[7]": {"conditions": "dose: 50.0 mg/kg/injection, schedule: Q01DX005 (ip), vehicle: saline"}}, "note": "Values joined by “and” are separate entries in the source; they are usually repeats but may differ in a detail not shown here. Identical values can stand only once. Toxic doses and inconclusive results are not listed. Peptide text beside a SMILES is read from it."}
{"smiles": "CCOC(=O)c1[nH]c(=O)[nH]c(=O)c1I", "values": [{"measurement": "T/C", "setting": "dose: 12.5 mg/kg/injection, schedule: Q01DX009 (ip), vehicle: distilled water + Tween-80", "value": "97 % of control"}, {"measurement": "T/C", "setting": "dose: 25.0 mg/kg/injection, schedule: Q01DX009 (ip), vehicle: distilled water + Tween-80", "value": "105 % of control"}, {"measurement": "T/C", "setting": "dose: 50.0 mg/kg/injection, schedule: Q01DX009 (ip), vehicle: distilled water + Tween-80", "value": "106 % of control"}, {"measurement": "T/C", "setting": "dose: 100.0 mg/kg/injection, schedule: Q01DX009 (ip), vehicle: distilled water + Tween-80", "value": "105 % of control"}, {"measurement": "T/C", "setting": "dose: 200.0 mg/kg/injection, schedule: Q01DX009 (ip), vehicle: distilled water + Tween-80", "value": "105 % of control"}]}
{"smiles": "Cc1ccc(-n2c(O)c(N=Nc3ccc(Br)cc3)c(=O)n(-c3ccc(Br)cc3)c2=S)cc1", "values": [{"measurement": "T/C", "setting": "[1]", "value": "96 % of control"}, {"measurement": "T/C", "setting": "[2]", "value": "99 % of control"}, {"measurement": "T/C", "setting": "[3]", "value": "94 % of control"}]}
{"smiles": "COc1cc2c(c(OC)c1OC)-c1ccc(SC)c(=O)cc1[C@@H](NC1OCC(O)C(O)C1O)CC2", "note": "(stereo partly drawn)", "values": [{"measurement": "T/C", "setting": "dose: 1.5 mg/kg/injection, schedule: Q01DX009 (ip), vehicle: water", "value": "105 % of control"}, {"measurement": "T/C", "setting": "dose: 3.0 mg/kg/injection, schedule: Q01DX009 (ip), vehicle: water", "value": "117 % of control"}, {"measurement": "T/C", "setting": "dose: 6.0 mg/kg/injection, schedule: Q01DX009 (ip), vehicle: water", "value": "113 % of control"}, {"measurement": "T/C", "setting": "dose: 12.0 mg/kg/injection, schedule: Q01DX009 (ip), vehicle: water", "value": "121 % of control"}, {"measurement": "T/C", "setting": "dose: 24.0 mg/kg/injection, schedule: Q01DX009 (ip), vehicle: other", "value": "152 % of control"}, {"measurement": "T/C", "setting": "dose: 24.0 mg/kg/injection, schedule: Q01DX009 (ip), vehicle: water", "value": "123 % of control"}, {"measurement": "T/C", "setting": "dose: 48.0 mg/kg/injection, schedule: Q01DX009 (ip), vehicle: other", "value": "155 % of control"}]}
{"smiles": "N#CO", "values": [{"measurement": "T/C", "setting": "dose: 100.0 mg/kg/injection, schedule: Q01DX009 (ip), vehicle: saline with Tween-80", "value": "90 % of control"}]}
{"smiles": "CC1(C)CC2(CC(C)(C)NC(=O)N2)NC(=O)N1", "values": [{"measurement": "T/C", "setting": "[4]", "value": "105 % of control"}, {"measurement": "T/C", "setting": "[5]", "value": "92 % of control"}, {"measurement": "T/C", "setting": "[6]", "value": "100 % of control"}]}
{"smiles": "CCC/C(=N\\NC(N)=NC)c1ccc2c(c1)Cc1cc(/C(CCC)=N/NC(N)=NC)ccc1-2", "values": [{"measurement": "T/C", "setting": "dose: 3.12 mg/kg/injection, schedule: Q04DX002 (ip), vehicle: saline with Tween-80", "value": "96 % of control"}, {"measurement": "T/C", "setting": "dose: 6.25 mg/kg/injection, schedule: Q04DX002 (ip), vehicle: saline with Tween-80", "value": "100 % of control"}]}
{"smiles": "NC(=S)c1cccc(OCCCOc2ccccc2)c1", "values": [{"measurement": "T/C", "setting": "[4]", "value": "96 % of control"}, {"measurement": "T/C", "setting": "[5]", "value": "91 % of control"}]}
{"smiles": "O=[N+]([O-])c1ccccc1N=Nc1c(-c2ccccc2)nn(C(=S)S)c1-c1ccccc1", "values": [{"measurement": "T/C", "setting": "dose: 25.0 mg/kg/injection, schedule: Q04DX002 (ip), vehicle: Klucel (hydroxypropylcellulose) (HPC)", "value": "99 % of control"}, {"measurement": "T/C", "setting": "dose: 50.0 mg/kg/injection, schedule: Q04DX002 (ip), vehicle: Klucel (hydroxypropylcellulose) (HPC)", "value": "101 % of control"}, {"measurement": "T/C", "setting": "dose: 100.0 mg/kg/injection, schedule: Q04DX002 (ip), vehicle: Klucel (hydroxypropylcellulose) (HPC)", "value": "105 % of control"}, {"measurement": "T/C", "setting": "dose: 200.0 mg/kg/injection, schedule: Q04DX002 (ip), vehicle: Klucel (hydroxypropylcellulose) (HPC)", "value": "112 % of control"}]}
{"smiles": "CCOc1c(N=Nc2ccccc2Cl)c(C)nn1C(N)=S", "values": [{"measurement": "T/C", "setting": "dose: 3.75 mg/kg/injection, schedule: Q01DX005 (ip), vehicle: Klucel + Tween-80", "value": "103 % of control"}, {"measurement": "T/C", "setting": "dose: 7.5 mg/kg/injection, schedule: Q01DX005 (ip), vehicle: Klucel + Tween-80", "value": "103 % of control"}, {"measurement": "T/C", "setting": "dose: 15.0 mg/kg/injection, schedule: Q01DX005 (ip), vehicle: Klucel + Tween-80", "value": "100 % of control and 110 % of control"}]}
{"smiles": "CCCCCCCCCCCC(=O)N(CCOC(=O)C(C)(C)C)CCOC(=O)C(C)(C)C", "values": [{"measurement": "T/C", "setting": "dose: 25.0 mg/kg/injection, schedule: Q01DX009 (ip), vehicle: Klucel (hydroxypropylcellulose) (HPC)", "value": "97 % of control"}, {"measurement": "T/C", "setting": "dose: 50.0 mg/kg/injection, schedule: Q01DX009 (ip), vehicle: Klucel (hydroxypropylcellulose) (HPC)", "value": "104 % of control and 113 % of control and 94 % of control"}, {"measurement": "T/C", "setting": "dose: 100.0 mg/kg/injection, schedule: Q01DX009 (ip), vehicle: Klucel (hydroxypropylcellulose) (HPC)", "value": "100 % of control (2×) and 111 % of control"}, {"measurement": "T/C", "setting": "dose: 200.0 mg/kg/injection, schedule: Q01DX009 (ip), vehicle: Klucel (hydroxypropylcellulose) (HPC)", "value": "99 % of control and 120 % of control"}, {"measurement": "T/C", "setting": "dose: 400.0 mg/kg/injection, schedule: Q01DX009 (ip), vehicle: Klucel (hydroxypropylcellulose) (HPC)", "value": "108 % of control"}]}
{"smiles": "COc1c2ccoc2cc2oc(COC3OC(CO)C(O)C(O)C3O)cc(=O)c12", "note": "(stereo not drawn)", "values": [{"measurement": "T/C", "setting": "dose: 12.5 mg/kg/injection, schedule: Q01DX005 (ip), vehicle: saline", "value": "100 % of control"}, {"measurement": "T/C", "setting": "dose: 25.0 mg/kg/injection, schedule: Q01DX005 (ip), vehicle: saline", "value": "108 % of control"}, {"measurement": "T/C", "setting": "[7]", "value": "106 % of control and 108 % of control"}]}
{"smiles": "C/C(=N\\NC(=S)Nc1ccc(S(=O)(=O)O)cc1)c1ccccn1", "values": [{"measurement": "T/C", "setting": "[4]", "value": "107 % of control"}, {"measurement": "T/C", "setting": "dose: 50.0 mg/kg/injection, schedule: Q01DX005 (ip), vehicle: suspension in saline", "value": "101 % of control"}, {"measurement": "T/C", "setting": "[5]", "value": "108 % of control"}, {"measurement": "T/C", "setting": "dose: 100.0 mg/kg/injection, schedule: Q01DX005 (ip), vehicle: suspension in saline", "value": "105 % of control"}, {"measurement": "T/C", "setting": "[6]", "value": "106 % of control"}, {"measurement": "T/C", "setting": "dose: 200.0 mg/kg/injection, schedule: Q01DX005 (ip), vehicle: suspension in saline", "value": "121 % of control"}, {"measurement": "T/C", "setting": "dose: 400.0 mg/kg/injection, schedule: Q01DX005 (ip), vehicle: Klucel (hydroxypropylcellulose) (HPC)", "value": "115 % of control"}]}
{"smiles": "NC(CCC(=O)O)C(=O)NC(Cc1ccc(O)cc1)C(=O)NC(CCC(=O)O)C(=O)O", "note": "(stereo not drawn) (H-Glu-Tyr-Glu-OH; configuration not given here)", "values": [{"measurement": "T/C", "setting": "[4]", "value": "93 % of control"}, {"measurement": "T/C", "setting": "[5]", "value": "100 % of control"}, {"measurement": "T/C", "setting": "[6]", "value": "98 % of control"}]}
{"smiles": "CCOC(=O)CSc1cc(O)c2ccccc2c1N=Nc1ccc(C(=O)OCC)cc1", "values": [{"measurement": "T/C", "setting": "dose: 50.0 mg/kg/injection, schedule: Q01DX005 (ip), vehicle: saline with Tween-80", "value": "104 % of control"}, {"measurement": "T/C", "setting": "dose: 100.0 mg/kg/injection, schedule: Q01DX005 (ip), vehicle: saline with Tween-80", "value": "110 % of control"}, {"measurement": "T/C", "setting": "dose: 200.0 mg/kg/injection, schedule: Q01DX005 (ip), vehicle: saline with Tween-80", "value": "114 % of control"}]}
{"smiles": "O=C(O)C1(NO)CCCC1", "values": [{"measurement": "T/C", "setting": "dose: 100.0 mg/kg/injection, schedule: Q04DX003 (ip), vehicle: saline", "value": "100 % of control"}, {"measurement": "T/C", "setting": "dose: 200.0 mg/kg/injection, schedule: Q04DX003 (ip), vehicle: saline", "value": "118 % of control"}, {"measurement": "T/C", "setting": "dose: 400.0 mg/kg/injection, schedule: Q04DX003 (ip), vehicle: saline", "value": "95 % of control"}]}
{"smiles": "Cc1cc(NC(=O)NCCOc2ccc(N3C(N)=NC(N)=NC3(C)C)cc2Cl)ccc1S(=O)(=O)F", "values": [{"measurement": "T/C", "setting": "dose: 12.5 mg/kg/injection, schedule: Q04DX003 (ip), vehicle: saline sonified", "value": "100 % of control"}, {"measurement": "T/C", "setting": "dose: 25.0 mg/kg/injection, schedule: Q04DX003 (ip), vehicle: saline sonified", "value": "100 % of control"}, {"measurement": "T/C", "setting": "dose: 50.0 mg/kg/injection, schedule: Q04DX003 (ip), vehicle: saline sonified", "value": "100 % of control"}]}
{"smiles": "O=c1oc2ccccc2c(O)c1C(c1ccc2c(c1)OCO2)N1CCOCC1", "note": "(stereo not drawn)", "values": [{"measurement": "T/C", "setting": "[7]", "value": "113 % of control"}, {"measurement": "T/C", "setting": "dose: 100.0 mg/kg/injection, schedule: Q01DX005 (ip), vehicle: saline", "value": "110 % of control"}, {"measurement": "T/C", "setting": "dose: 200.0 mg/kg/injection, schedule: Q01DX005 (ip), vehicle: saline", "value": "103 % of control"}]}
{"smiles": "NCCn1[nH]c(=O)c2cccnc2c1=O", "values": [{"measurement": "T/C", "setting": "[1]", "value": "100 % of control"}, {"measurement": "T/C", "setting": "[2]", "value": "95 % of control"}, {"measurement": "T/C", "setting": "[3]", "value": "101 % of control"}]}
